Measured values published in patent US20100256160A1, “METHOD OF ADMINISTERING AN ANTITUMOR COMPOUND” (NERVIANO MEDICAL SCIENCES S.R.L., priority 2006, published 2010).

Assays:
[1] = tested on: patients with refractory or resistant solid tumours; experiment: Phase I dose escalation trial, 24 hours iv infusion once every two weeks: toxicity and response; format: in vivo
Procedure: (§1) A phase I pharmacological trial was carried out to investigate the iv administration of Compound 1 given in 24 hours infusion once every two weeks in patients with refractory or resistant solid tumours, including lung, colorectal, gastro-oesophageal, cervix, Ewing, renal, head and neck, mesothelioma and cancer of unknown primary.
This was a dose escalation study. Cohorts of 3-6 patients were sequentially allotted to progressively higher dose levels (DL) of Compound 1 based on the number of dose limiting toxicities (DLTs) observed. As per protocol, definition of DLTs were grade (G) 4 neutropenia lasting >7 days, febrile neutropenia, neutropenic infection, any G3 or 4 non-hematological drug related toxicities during the first cycle of treatment.
(§2) Forty patients were enrolled. Seven DLs were explored (45, 90, 180, 360, 500, 650 and 580 mg/m^2). […] Except one G3 diarrhea, pyrexia and fatigue in one patient each, all other drug related non-hematological adverse events were G1 or 2 (fatigue, anorexia, nausea, vomiting, and ejection fraction decreased). One DLT (neutropenic infection) in the 360 mg/m^2, 2 DLTs (neutropenic infection and febrile neutropenia) at DL 650 mg/m^2 and 2 DLTs at 580 mg/m^2 (G 3 liver enzyme increase and febrile neutropenia) were reported. The MTD has been exceeded at 650 and 580 mg/m^2.

Aurora kinases (AKs) C = target: T1, Aurora kinases (AKs) C (Homo sapiens, UniProt Q9UQB9); experiment: Inhibitory potency towards Aurora kinase C; format: biochemical
T1 sequence (Q9UQB9 1-309): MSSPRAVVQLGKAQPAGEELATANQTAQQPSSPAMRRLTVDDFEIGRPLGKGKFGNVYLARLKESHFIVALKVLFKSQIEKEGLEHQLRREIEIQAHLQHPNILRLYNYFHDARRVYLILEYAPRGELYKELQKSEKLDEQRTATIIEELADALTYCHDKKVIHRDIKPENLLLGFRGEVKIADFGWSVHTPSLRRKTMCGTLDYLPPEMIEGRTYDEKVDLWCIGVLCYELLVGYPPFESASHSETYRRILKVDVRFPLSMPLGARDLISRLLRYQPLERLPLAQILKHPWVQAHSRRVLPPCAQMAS

[2] = tested on: patients with hematopoietic malignancies such as relapsed/refractory acute leukemia; experiment: Phase I study, 3-hour intravenous infusion for three consecutive days every two weeks; format: in vivo, human; details: 100, 150, 210, and 280 mg/m^2/daily; ten patients
Procedure: A phase I pharmacological study to investigate the iv administration of Compound 1 given in a 3-hour intravenous infusion for three consecutive days every two weeks in patients with hematopoietic malignancies such as relapsed/refractory acute leukemia. Ten patients have been enrolled in 4 dose levels (100, 150, 210, and 280 mg/m^2/daily). […] Dose escalation is still proceeding.

[3] = tested on: patients with advanced/metastatic solid tumors; experiment: Two-center phase I dose escalation trial, 6-hours IV infusion weekly for 3 consecutive weeks in a 28-day cycle; format: in vivo
Procedure: The infusion duration was selected to reduce the potential for Cmax related toxicities. Forty patients were treated with doses ranging from 45 to 400 mg/m^2. […] In order to define the recommended dose for phase II, 330 mg/m^2 dose level was investigated.

[4] = Pharmacokinetics in phase I trial, 24 hours iv infusion once every two weeks; format: in vivo, human; details: patients
Procedure: as §1
Neutropenia was the dose-limiting toxicity for Compound 1 and easily managed. […] Biomarker modulation occurred at ≧500 mg/m^2. […] The recommended dose for Phase II was 500 mg/m^2. Furthermore the protocol was amended to increase the dose up to 750 mg/m^2 with prophylactic treatment with G-CSF.

Aurora kinases (AKs) B = Aurora kinases (AKs) B (Homo sapiens, UniProt Q96GD4); experiment: Inhibitory potency towards Aurora kinase B; format: biochemical
[5] = tested on: histone H3 phosphorylation; experiment: Histone H3 phosphorylation in skin biopsies of patients, phase I trial 24 hours infusion; format: in vivo, human; details: 24 h iv infusion
Procedure: as §1, §2

Aurora kinases (AKs) A = target: T2, Aurora kinases (AKs) A (Homo sapiens, UniProt O14965); experiment: Inhibitory potency towards Aurora kinase A; format: biochemical
T2 sequence (O14965 1-403): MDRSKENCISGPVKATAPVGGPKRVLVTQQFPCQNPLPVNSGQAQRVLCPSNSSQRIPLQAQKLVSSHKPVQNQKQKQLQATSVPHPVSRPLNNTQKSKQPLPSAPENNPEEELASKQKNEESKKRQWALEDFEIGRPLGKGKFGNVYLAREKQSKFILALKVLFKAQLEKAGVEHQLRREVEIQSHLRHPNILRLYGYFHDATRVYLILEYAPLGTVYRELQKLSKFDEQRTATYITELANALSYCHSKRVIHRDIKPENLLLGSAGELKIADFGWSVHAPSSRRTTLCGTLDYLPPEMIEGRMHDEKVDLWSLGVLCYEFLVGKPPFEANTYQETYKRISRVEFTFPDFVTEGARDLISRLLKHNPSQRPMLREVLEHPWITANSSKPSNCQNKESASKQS

Sequence of Aurora kinases (AKs) B (Q96GD4 whole entry, the tested form may be a part): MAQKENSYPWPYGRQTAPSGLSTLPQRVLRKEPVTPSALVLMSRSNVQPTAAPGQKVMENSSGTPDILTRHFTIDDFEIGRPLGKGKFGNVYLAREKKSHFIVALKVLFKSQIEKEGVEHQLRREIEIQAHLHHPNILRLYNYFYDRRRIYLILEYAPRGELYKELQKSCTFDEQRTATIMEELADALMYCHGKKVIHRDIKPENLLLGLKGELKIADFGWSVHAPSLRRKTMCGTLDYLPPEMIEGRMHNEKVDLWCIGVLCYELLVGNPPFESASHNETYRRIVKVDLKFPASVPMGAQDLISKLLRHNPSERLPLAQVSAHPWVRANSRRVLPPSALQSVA

With `CO[C@@H](C(=O)N1Cc2n[nH]c(NC(=O)c3ccc(N4CCN(C)CC4)cc3)c2C1)c1ccccc1` [Compound 1, N-{5-[(2R)-2-methoxy-2-phenylethanoyl]-1,4,5,6-tetrahydropyrrolo[3,4-c]pyrazol-3-yl}-4-(4-methylpiperazin-1-yl)benzamide] the “MTD (exceeded at 650 and 580 mg/m^2)” value ([1]; 24 h iv infusion every two weeks) was < 580 mg/m^2, the “number of pts with stable disease as best response” value ([1]; forty patients enrolled) was “Nine” and the “recommended dose for Phase II” value ([1]; human, in vivo, iv) was 500 mg/m^2. For the same molecule, the dose-limiting toxicity ([1]; in vivo, iv) was “Neutropenia”, the “non-hematological drug related adverse events, severity” value ([1]; in vivo, iv) was “mild or moderate” and the “number of stable-disease pts with response duration >6 months” value ([1]; of the nine pts with stable disease) was 3. For the same molecule, the “inhibitory potency towards Aurora kinase C” value (Aurora kinases (AKs) C) was “significant inhibitory potency”, the tolerability of regimen [2] was “well tolerated” and the “uncomplicated grade 3 neutropenia” value ([3]; 250 mg/m^2) was “frequently reported”. The drug-related deaths ([3]; 45 to 400 mg/m^2) was “No drug-related deaths”, the hematological toxicity reported ([3]; 45 to 400 mg/m^2, 6-hours IV infusion days 1, 8, 15 every 28 days) was “Uncomplicated neutropenia of short duration” and the “drug-related non hematological toxicities, severity” value ([3]; G1/G2 diarrhea, nausea, vomiting, fatigue, anorexia and blood pressure increase) was “mild or moderate”. For the same molecule, the “number of patients with stable disease as best response” value ([3]; forty patients treated) was “Seven”, the “number of stable-disease patients with response lasting more than seven months” value ([3]; of the seven patients with stable disease) was “four” and the clearance ([4]; human, in vivo) was 5 to 7.5 mL/min/kg. For the same molecule, the half-life ([4]; human, in vivo, read-out: terminal half-life) was 18 to 30 h, the pharmacokinetic behavior [4] was “dose-proportional and time-independent behavior” and the “pharmacokinetic linearity and variability” value [4] was “linear with low inter-individual variability”. For the same molecule, the volume of distribution [4] was 2-4 times total body water, the “inhibitory potency towards Aurora kinase B” value (Aurora kinases (AKs) B) was “significant inhibitory potency” and the “dose at which inhibition of histone H3 phosphorylation (biomarker modulation) was evident” value [5] was ≥ 500 mg/m^2. For the same molecule, the “inhibitory potency towards Aurora kinase A” value (Aurora kinases (AKs) A) was “significant inhibitory potency”.
